Consider twelve molecules from US11738019B2, “Substituted heterocycles as antiviral agents” (ENANTA PHARMACEUTICALS, INC., priority 2019, dated 2023).

pEC50: −log10 of the molar value. A value given as a limit tells only on which side of the number the result lay.

In this assay the test system is HBV (2.2.15 cells). The assay can be described thus: HBV viral product reduction in 2.2.15 cells (qPCR / HBsAg or HBeAg ELISA). It counts as cell-based. The note with it: Hepatitis B virus, 120 h, day 5 post treatment, concentration reducing viral product accumulation in cell lysates or supernatants by 50% relative to no drug controls. As to the method:
2.2.15 cells are passaged upon attaining confluency in DMEM/F12 media in the presence of 10% FBS, Penn/Strep, and 250 ug/mL G418. Novel compounds are 5 fold serially diluted in DMSO and added to 96 well plates containing 35,000 cells/well at a 1:200 dilution so that the final concentration of DMSO is 0.5%. On day 5, post treatment cell lysates and supernatants are harvested for analysis.
Cells are lysed using Agilent Sidestep Lysis buffer, diluted 1:100 and quantified via quantitative real time PCR. Commercially available ELISA kits are used to quantitate the viral proteins HBsAg (Alpco) or HBeAg (US Biological) by following the manufacturer's recommended protocol after diluting samples to match the linear range of their respective assays. Irrespective of readout, compound concentrations that reduce viral product accumulation in the cell lysates or supernatants by 50% relative to no drug controls (EC50) are reported; EC50 ranges are as follows: A<0.1 μM; B 0.1-1 μM; C>1 μM.
In general terms: In qPCR the cycle at which signal appears reflects the starting amount.
What is called pEC50 is the EC50 on a negative log10 scale, so that one unit is a factor of ten. A high value points to a small EC50. Turning to `CC(C)(C)[C@@H]1Cc2c(cc(-c3cscn3)c3occc23)-c2cc(=O)c(C(=O)O)cn21` [Example 30, (S)-5-(tert-butyl)-9-oxo-12-(thiazol-4-yl)-4,9-dihydro-5H-furo[3,2-f]pyrido[2,1-a]isoquinoline-8-carboxylic acid], the negative logarithm of the EC50 (pEC50) is under 6.00. Consider `CC(C)(C)[C@@H]1Cc2c(cc(-c3cccs3)c3occc23)-c2cc(=O)c(C(=O)O)cn21` [Example 24, (S)-5-(tert-butyl)-9-oxo-12-(thiophen-2-yl)-4,9-dihydro-5H-furo[3,2-f]pyrido[2,1-a]isoquinoline-8-carboxylic acid], for which the pEC50 was under 6.00. Consider `CC(C)(C)[C@@H]1Cc2c(cc(-c3cnco3)c3occc23)-c2cc(=O)c(C(=O)O)cn21` [Example 22, (S)-5-(tert-butyl)-12-(oxazol-5-yl)-9-oxo-4,9-dihydro-5H-furo[3,2-f]pyrido[2,1-a]isoquinoline-8-carboxylic acid], for which the pEC50 was 6.00 to 7.00. Molecule `CC(C)(C)[C@@H]1Cc2c(cc(-c3ccco3)c3occc23)-c2cc(=O)c(C(=O)O)cn21` [Example 26, (S)-5-(tert-butyl)-12-(furan-2-yl)-9-oxo-4,9-dihydro-5H-furo[3,2-f]pyrido[2,1-a]isoquinoline-8-carboxylic acid] had a pEC50 of under 6.00. With `Cn1nccc1-c1cc2c(c3ccoc13)C[C@@H](C(C)(C)C)n1cc(C(=O)O)c(=O)cc1-2` [Example 4, (S)-5-(tert-butyl)-12-(1-methyl-1H-pyrazol-5-yl)-9-oxo-4,9-dihydro-5H-furo[3,2-f]pyrido[2,1-a]isoquinoline-8-carboxylic acid] the figure was over 7.00. `CC(C)(C)[C@@H]1Cc2c(cc(N3CCC(F)(F)C3)c3occc23)-c2cc(=O)c(C(=O)O)cn21` [Example 20, (S)-5-(tert-butyl)-12-(3,3-difluoropyrrolidin-1-yl)-9-oxo-4,9-dihydro-5H-furo[3,2-f]pyrido[2,1-a]isoquinoline-8-carboxylic acid] gave a pEC50 of 6.00 to 7.00. `CC(C)(C)[C@@H]1Cc2c(cc(N3CCCC3)c3occc23)-c2cc(=O)c(C(=O)O)cn21` [Example 21, (S)-5-(tert-butyl)-9-oxo-12-(pyrrolidin-1-yl)-4,9-dihydro-5H-furo[3,2-f]pyrido[2,1-a]isoquinoline-8-carboxylic acid] had a negative logarithm of the EC50 (pEC50) of 6.00 to 7.00. With `CC(C)(C)[C@@H]1Cc2c(cc(-c3cnsc3)c3occc23)-c2cc(=O)c(C(=O)O)cn21` [Example 29, (S)-5-(tert-butyl)-12-(isothiazol-4-yl)-9-oxo-4,9-dihydro-5H-furo[3,2-f]pyrido[2,1-a]isoquinoline-8-carboxylic acid] the figure was under 6.00.

`CC(C)(C)[C@@H]1Cc2c(cc(-c3ccn[nH]3)c3occc23)-c2cc(=O)c(C(=O)O)cn21` [Example 28, (S)-5-(tert-butyl)-9-oxo-12-(1H-pyrazol-5-yl)-4,9-dihydro-5H-furo[3,2-f]pyrido[2,1-a]isoquinoline-8-carboxylic acid] had a pEC50 of under 6.00. In the case of `Cn1ccc(-c2cc3c(c4ccoc24)C[C@@H](C(C)(C)C)n2cc(C(=O)O)c(=O)cc2-3)n1` [Example 23, (S)-5-(tert-butyl)-12-(1-methyl-1H-pyrazol-3-yl)-9-oxo-4,9-dihydro-5H-furo[3,2-f]pyrido[2,1-a]isoquinoline-8-carboxylic acid] it was under 6.00; in that of `CC(C)(C)[C@@H]1Cc2c(cc(-c3ccsc3)c3occc23)-c2cc(=O)c(C(=O)O)cn21` [Example 25, (S)-5-(tert-butyl)-9-oxo-12-(thiophen-3-yl)-4,9-dihydro-5H-furo[3,2-f]pyrido[2,1-a]isoquinoline-8-carboxylic acid], under 6.00. With `CC(C)(C)[C@@H]1Cc2c(cc(-c3cn[nH]c3)c3occc23)-c2cc(=O)c(C(=O)O)cn21` [Example 27, (S)-5-(tert-butyl)-9-oxo-12-(1H-pyrazol-4-yl)-4,9-dihydro-5H-furo[3,2-f]pyrido[2,1-a]isoquinoline-8-carboxylic acid] the figure was under 6.00.
